How the values were obtained:
RET kinase Wild Type = RET kinase Wild Type (Homo sapiens, UniProt P07949); assay: biochemical;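 further: HTRF kinase activity assay on RET enzyme, 1 h reaction at 22 °C, dual-wavelength readout as percent of control, DMSO-only wells as 100%, pre-quenched reactions as 0%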
Experimental: (§1) The potency of compounds inhibiting several different RET kinase forms (Wild Type, V804M, G810R, & G810S) were determined using CisBio's HTRF® KinEASE™-TK assay technology. […] After a 1 hour incubation at 22° C., the extent of reaction was determined using a PerkinElmer EnVision multimode plate reader via HTRF dual wavelength detection, and the percent of control (POC) was calculated using a ratiometric emission factor. One hundred POC was determined using DMSO only samples (no compound present), and 0 POC was determined using pre-quenched control reactions.

G810S mutant RET kinase = G810S mutant RET kinase (Homo sapiens, UniProt P07949, G810S); assay: biochemical;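 further: HTRF KinEASE-TK kinase assay with recombinant enzyme, 1 h at 22 °C, dual-wavelength ratiometric read-out, percent of control (DMSO-only = 100, pre-quenched reaction = 0)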
G810S mutant RET kinase, sequence (P07949 29-1114 G810S): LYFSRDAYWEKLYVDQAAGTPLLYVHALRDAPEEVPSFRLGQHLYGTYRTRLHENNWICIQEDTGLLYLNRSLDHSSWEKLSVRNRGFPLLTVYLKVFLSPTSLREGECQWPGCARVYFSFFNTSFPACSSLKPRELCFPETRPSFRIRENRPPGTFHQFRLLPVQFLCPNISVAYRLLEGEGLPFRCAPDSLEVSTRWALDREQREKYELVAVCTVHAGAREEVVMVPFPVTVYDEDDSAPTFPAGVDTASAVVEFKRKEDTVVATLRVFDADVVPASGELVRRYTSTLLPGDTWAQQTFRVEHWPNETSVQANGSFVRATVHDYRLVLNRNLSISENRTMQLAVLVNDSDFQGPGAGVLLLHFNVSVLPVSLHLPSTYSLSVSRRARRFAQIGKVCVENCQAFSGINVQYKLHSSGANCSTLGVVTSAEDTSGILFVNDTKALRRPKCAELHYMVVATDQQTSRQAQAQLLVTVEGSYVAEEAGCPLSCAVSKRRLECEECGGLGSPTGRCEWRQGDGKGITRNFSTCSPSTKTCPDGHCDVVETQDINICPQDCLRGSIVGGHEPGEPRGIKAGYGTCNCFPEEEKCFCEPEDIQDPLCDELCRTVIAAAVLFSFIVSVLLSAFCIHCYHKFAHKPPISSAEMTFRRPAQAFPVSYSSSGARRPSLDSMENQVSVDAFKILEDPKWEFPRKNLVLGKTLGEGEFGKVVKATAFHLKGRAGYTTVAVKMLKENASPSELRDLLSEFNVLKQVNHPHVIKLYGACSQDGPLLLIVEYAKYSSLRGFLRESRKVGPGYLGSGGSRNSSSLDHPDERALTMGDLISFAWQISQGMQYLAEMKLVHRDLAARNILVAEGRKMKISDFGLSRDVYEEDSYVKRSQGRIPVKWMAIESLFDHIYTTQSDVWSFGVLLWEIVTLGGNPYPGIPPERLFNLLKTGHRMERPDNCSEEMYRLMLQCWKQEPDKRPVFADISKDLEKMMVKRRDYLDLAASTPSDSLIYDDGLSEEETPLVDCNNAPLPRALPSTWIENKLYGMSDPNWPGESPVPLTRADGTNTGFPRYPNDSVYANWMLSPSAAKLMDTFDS
Experimental: as §1
The potency of a compound inhibiting G810R or G810S mutant RET kinase was determined using CisBio's HTRF® KinEASE™-TK assay technology. The assays contained G810R or G810S mutant RET produced at Array Biopharma, Inc. (1 nM enzyme). […] After a 1-h incubation at 22° C., the extent of reaction was determined using a PerkinElmer EnVision multimode plate reader via HTRF dual wavelength detection, and the percent of control (POC) was calculated using a ratiometric emission factor. One hundred POC was determined using no test compounds, and 0 POC was determined using pre-quenched control reactions.

G810R mutant RET kinase = G810R mutant RET kinase (Homo sapiens, UniProt P07949, G810R); assay: biochemical;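 further: HTRF KinEASE-TK enzymatic assay with 1 nM recombinant RET G810R, 1 h at 22 °C, dual-wavelength ratiometric readout, 100% control without compound, 0% from pre-quenched reactions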
G810R mutant RET kinase, sequence (P07949 29-1114 G810R): as the sequence (P07949 29-1114 G810S) above, with S782R counted along it

RET kinase V804M = RET kinase V804M (Homo sapiens, UniProt P07949, V804M); assay: RET Enzyme Assay (CisBio HTRF KinEASE-TK), V804M; assay type: biochemical; conditions: read-out: RET V804M Enz FRET IC50
RET kinase V804M, sequence (P07949 29-1114 V804M): as the sequence (P07949 29-1114 G810S) above, with V776M, S782G counted along it
Experimental: as §1

RET kinase Wild Type, sequence (P07949 29-1114): as the sequence (P07949 29-1114 G810S) above, with S782G counted along it

IC50 (RET kinase Wild Type) [nM]	IC50 (G810S mutant RET kinase) [nM]	IC50 (G810R mutant RET kinase) [nM]	IC50 (RET kinase V804M) [nM]	SMILES
205	648	354	1790	CC(C)n1c2c(c3c(N)ncnc31)-c1noc(C3CC3)c1C(=O)N(CCc1cnn(C)c1)C2 [Example 16, 11-amino-3-cyclopropyl-7-isopropyl-5-(2-(1-methyl-1H-pyrazol-4-yl)ethyl)-6,7-dihydroisoxazolo[4,3-c]pyrimido[5′,4′:4,5]pyrrolo[3,2-e]azepin-4(5H)-one]
621	973	724	2200	CC(C)n1c2c(c3c(N)ncnc31)-c1noc(C3CC3)c1CN(CCO)C2 [Example 40, 2-(11-amino-3-cyclopropyl-7-isopropyl-6,7-dihydroisoxazolo[4,3-c]pyrimido[5′,4′:4,5]pyrrolo[3,2-e]azepin-5(4H)-yl)ethan-1-ol 2,2,2-trifluoroacetate]
571	1320	1320	2210	CC(C)n1c2c(c3c(N)ncnc31)-c1noc(C3CC3)c1CN(C)C2 [Example 31, 3-cyclopropyl-7-isopropyl-5-methyl-4,5,6,7-tetrahydroisoxazolo[4,3-c]pyrimido[5′,4′:4,5]pyrrolo[3,2-e]azepin-11-amine]
139	405	211	415	Nc1ncnc2c1c1c(n2C2CCOC2)CCC(=O)c2c-1noc2C1CC1 (stereo not drawn) [Example 141, 11-Amino-3-cyclopropyl-7-(tetrahydrofuran-3-yl)-6,7-dihydroisoxazolo[4″,3″:6′,7′]cyclohepta[1′,2′:4,5]pyrrolo[2,3-d]pyrimidin-4(5H)-one]
103	298	224	533	CC(C)n1c2c(c3c(N)ncnc31)-c1noc(C3CC3)c1C(=O)N(CCN1CCS(=O)(=O)CC1)C2 [Example 9, 11-amino-3-cyclopropyl-5-(2-(1,1-dioxidothiomorpholino)ethyl)-7-isopropyl-6,7-dihydroisoxazolo[4,3-c]pyrimido[5′,4′:4,5]pyrrolo[3,2-e]azepin-4(5H)-one]
1790	2300	2180	6830	Nc1ncnc2[nH]c3c(c12)-c1noc(C2CC2)c1C(=O)NC3 [Example 66, 11-amino-3-cyclopropyl-6,7-dihydroisoxazolo[4,3-c]pyrimido[5′,4′:4,5]pyrrolo[3,2-e]azepin-4(5H)-one 2,2,2-trifluoroacetate]
112	488	560	355	CC(=O)N1CCC(n2c3c(c4c(N)ncnc42)-c2noc(C4CC4)c2C(O)CC3)C1 (stereo not drawn) [Example 134, 1-(3-(11-amino-3-cyclopropyl-4-hydroxy-5,6-dihydroisoxazolo[4″,3″:6′,7′]cyclohepta[1′,2′:4,5]pyrrolo[2,3-d]pyrimidin-7(4H)-yl)pyrrolidin-1-yl)ethan-1-one 2,2,2-trifluoroacetate]
143	646	272	376	CC(C)(O)[C@H]1C[C@@H](n2c3c(c4c(N)ncnc42)-c2noc(C4CC4)c2C(O)CC3)C1 (stereo partly drawn) [Example 138, 11-Amino-3-cyclopropyl-7-((1s,3s)-3-(2-hydroxypropan-2-yl)cyclobutyl)-4,5,6,7-tetrahydroisoxazolo[4″,3″:6′,7′]cyclohepta[1′,2′:4,5]pyrrolo[2,3-d]pyrimidin-4-ol 2,2,2-trifluoroacetate]
201	817	274	551	Nc1ncnc2c1c1c(n2[C@H]2C[C@@H](CO)C2)CCC(O)c2c-1noc2C1CC1 (stereo partly drawn) [Example 136, 11-Amino-3-cyclopropyl-7-((1s,3s)-3-(hydroxymethyl)cyclobutyl)-4,5,6,7-tetrahydroisoxazolo[4″,3″:6′,7′]cyclohepta[1′,2′:4,5]pyrrolo[2,3-d]pyrimidin-4-ol 2,2,2-trifluoroacetate]
357	282	435	1050	COc1ccc(-n2c3c(c4c(N)ncnc42)-c2noc(C4CC4)c2C(O)CC3)cn1 (stereo not drawn) [Example 114, 11-Amino-3-cyclopropyl-7-(6-methoxypyridin-3-yl)-4,5,6,7-tetrahydroisoxazolo[4″,3″:6′,7′]cyclohepta[1′,2′:4,5]pyrrolo[2,3-d]pyrimidin-4-ol 2,2,2-trifluoroacetate]
275	859	308	749	CO[C@H]1CCc2c(c3c(N)ncnc3n2C(C)C)-c2noc(C3CC3)c21 (single isomer, unassigned) [Example 59]
342	921	649	3120	CC(C)n1c2c(c3c(N)ncnc31)-c1noc(C3CC3)c1CN(C(=O)C1CC1)C2 [Example 38, (11-amino-3-cyclopropyl-7-isopropyl-6,7-dihydroisoxazolo[4,3-c]pyrimido[5′,4′:4,5]pyrrolo[3,2-e]azepin-5(4H)-yl)(cyclopropyl)methanone]
112	293	252	865	COc1ccc(CCN2Cc3c(c4c(N)ncnc4n3C(C)C)-c3noc(C4CC4)c3C2=O)cc1 [Example 14, 11-amino-3-cyclopropyl-7-isopropyl-5-(4-methoxyphenethyl)-6,7-dihydroisoxazolo[4,3-c]pyrimido[5′,4′:4,5]pyrrolo[3,2-e]azepin-4(5H)-one]
142	581	308	595	CNC1CCc2c(c3c(N)ncnc3n2C(C)C)-c2noc(C3CC3)c21 (stereo not drawn) [Example 27, 3-cyclopropyl-7-isopropyl-N4-methyl-4,5,6,7-tetrahydroisoxazolo[4″,3″:6′,7′]cyclohepta[1′,2′:4,5]pyrrolo[2,3-d]pyrimidine-4,11-diamine]
153	397	253	692	CC(C)n1c2c(c3c(N)ncnc31)-c1noc(C3CC3)c1C(=O)N(c1cnn(C)c1)C2 [Example 18, 11-amino-3-cyclopropyl-7-isopropyl-5-(1-methyl-1H-pyrazol-4-yl)-6,7-dihydroisoxazolo[4,3-c]pyrimido[5′,4′:4,5]pyrrolo[3,2-e]azepin-4(5H)-one]

From patent US11964988B2, “Fused heterocyclic compounds as RET kinase inhibitors” (ARRAY BIOPHARMA INC., priority 2018, dated 2024)
